Reference: BigSolDB 2.1

N[C@H](Cc1c[nH]cn1)C(=O)O
solubility (mole fraction)
Conditions | 293.15 K | 298.15 K | 303.15 K | 308.15 K | 313.15 K | 318.15 K | 323.15 K | 328.15 K | 333.15 K
in 1,4-dioxane | 0.0072 | 0.00864 | 0.0102 | 0.0117 | 0.0135 | 0.0152 | 0.0179 | 0.0206 | 0.0245
in DMF | 0.154 | 0.176 | 0.201 | 0.228 | 0.258 | 0.29 | 0.326 | 0.365 | 0.417
in DMSO | 0.0171 | 0.0199 | 0.0232 | 0.0267 | 0.0308 | 0.0353 | 0.0403 | 0.0459 | 0.0543
in NMP | 0.0656 | 0.0752 | 0.0859 | 0.0977 | 0.111 | 0.127 | 0.14 | 0.157 | 0.178
in cyclohexane | 0.000445 | 0.000565 | 0.000714 | 0.000897 | 0.00111 | 0.00138 | 0.00169 | 0.00216 | 0.00252
in ethanol | 0.000253 | 0.000329 | 0.000433 | 0.000557 | 0.000724 | 0.000915 | 0.0012 | 0.00145 | 0.00181
in ethylene glycol | 0.00215 | 0.00263 | 0.0032 | 0.00385 | 0.00459 | 0.00559 | 0.00654 | 0.00774 | 0.00944
in isobutanol | 0.000546 | 0.000681 | 0.00085 | 0.00105 | 0.00129 | 0.00156 | 0.00201 | 0.0024 | 0.00286
in isopropanol | 0.000369 | 0.00047 | 0.000598 | 0.000759 | 0.000945 | 0.00117 | 0.00146 | 0.00177 | 0.00228
in methanol | 0.00019 | 0.000252 | 0.00033 | 0.000431 | 0.000562 | 0.000712 | 0.000904 | 0.00119 | 0.00156
in n-butanol | 0.0007 | 0.000865 | 0.00105 | 0.00128 | 0.00155 | 0.00187 | 0.00224 | 0.00263 | 0.0033
in n-propanol | 0.000484 | 0.00061 | 0.00076 | 0.000941 | 0.00115 | 0.00142 | 0.00172 | 0.00208 | 0.00263
in water | 0.00458 | 0.00506 | 0.00556 | 0.00619 | 0.00686 | 0.00765 | 0.00878 | 0.00971 | 0.0118
